Source: patent US20080311048A1, “Imaging Agent” (ISIS INNOVATION LTD., priority 2005, published 2008)

Tested on: left hemisphere of rat brains injected with Interleukin-1β (selectin expression)
Experiment: MRI scans of rat brains after interleukin-1β injection into the left hemisphere
Details: in vivo
Description: The magnetic particles of the present invention can be used in a number of different methods. In particular, sugars conjugated to ultra small super paramagnetic iron oxide provide more sensitive detection of cerebroendothelial cell activation than know contrast agents such as Gd-DTPA-B(sLEex)A. In particular conjugated magnetic particles in accordance with the present invention were used in MRI scans. Interleukin-1β was injected into the left hemisphere of rat brains. Interleukin beta was used to induce an inflammatory response in the left hemispheres. All samples were subjected to MRI scans. Controls were carried out using Gd alone, or superparamagnetic particles alone. Two different conjugates, one of which having a disaccharide and one of which having Sialyl Lewis X, both in accordance with the present invention were tested. […] The control with Gd (shown in FIG. 2) confirmed that there was no breakdown of the blood brain barrier. […] Thus, the conjugates of the present invention allowed imaging of the areas of the brain that had been injected with interleukin-1β, and which would be expected to show greater levels of selectin expression.

In the case of Sialyl Lewis X, the “MRI scan: asymmetry between left and right cranial hemispheres” value is reported as “asymmetry, being darker in the left hemisphere than the right”.
